These are literature values, as cited in US20060251690A1, “Skin enrichment using CoQ10 as the delivery system” (Zymes, LLC, priority 2005, published 2006).

Where two headings read alike, the source gives them in different places. Bounds are passed on as bounds.

The conditions of data set [1]: human skin (in vitro).
Test in data set [2]: not given
This is another data set of the same source.

Test in data set [3]: not given
The source holds these as a separate data set.

The conditions of data set [4]: after chronic topical use, combined with other fat and water soluble ingredients.

Turning to `O=C(O)CCCCCCCC(=O)O` [azelaic acid], the half-life after application was 12 h. The “applied dose found in the epidermis and dermis” value in data set [1] is on record as “Up to 10%”.

Regarding `O=C1O[C@H]([C@@H](O)CO)C(O)=C1O` [vitamin C], in data set [2] (autoxidation named as cause), the half life was 0.5 h.

In the case of `COc1ccc(-c2ccc3cc(C(=O)O)ccc3c2)cc1C12CC3CC(CC(C3)C1)C2` [adapalene], the “solubility in polar solvents such as ethanol” value in data set [3] (ethanol) is on record as “only sparingly soluble”. In addition, in data set [3] (water), the solubility in water result is “virtually insoluble”. In addition, the absorption of adapalene in data set [4] is reported as less than 0.25 ng/mL.

`COC1=C(OC)C(=O)C(C/C=C(\C)CC/C=C(\C)CC/C=C(\C)CC/C=C(\C)CC/C=C(\C)CC/C=C(\C)CC/C=C(\C)CC/C=C(\C)CC/C=C(\C)CCC=C(C)C)=C(C)C1=O` [CoQ10, 2,3 dimethoxy-5 methyl-6 decaprenyl benzoquinone]: the half life in data set [2] is on record as more than 30 h.
